Measured values taken from patent US6423696B1, “Inhibition of arylamine N-acetyl transferase” (The United States of America, as represented by the …, priority 1999, dated 2002).
Read-outs that look alike come from different tables or passages of the source. Each block holds one molecule with its values, some of them ahead of it.

Assays:
NAT-2 [1] = biological target: T1, NAT-2 (Homo sapiens, UniProt P11245); assay: Acetylation in human liver subcellular preparation (cytosol), NAT-2 substrates, cross inhibition; type: biochemical; set-up: from tissue; host or cells: human liver cytosol (105,000 g supernatant); key to inhibition of acetylation of substrate DDS / inhibition of acetylation of substrate SMZ / inhibition of acetylation of substrate INH: ++ = strong inhibition; −− = no inhibition; settings: for formation of acetylated metabolite, substrate incubated alone: incubated separately with human liver cytosol
T1 sequence (P11245 1-290): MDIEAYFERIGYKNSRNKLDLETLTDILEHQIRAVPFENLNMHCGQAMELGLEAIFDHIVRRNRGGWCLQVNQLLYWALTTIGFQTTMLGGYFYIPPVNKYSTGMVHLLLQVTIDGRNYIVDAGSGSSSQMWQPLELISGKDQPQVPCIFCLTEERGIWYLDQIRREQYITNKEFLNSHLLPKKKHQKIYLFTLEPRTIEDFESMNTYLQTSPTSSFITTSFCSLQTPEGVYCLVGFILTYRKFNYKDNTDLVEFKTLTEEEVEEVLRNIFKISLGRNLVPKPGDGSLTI
Description: The reaction was terminated by the addition of perchloric acid to a final concentration of 1.5%.
INH, DDS, SMZ were incubated with human liver subcellular preparations as described in Example 1. The reactions were allowed to proceed for thirty minutes at 37° C. before termination by addition of perchloric acid. […] For INH, 1-octanesulfonic acid (5 mM) was added to the mobile phase.

NAT-2 [2] = biological target: T1, NAT-2; assay: Acetylation in human hepatocyte culture, NAT-2 substrates; type: cell-based; settings: human hepatocytes
Description: INH, DDS and SMZ were incubated with human hepatocytes as described in Example 1. Parallel cultures were conducted for each drug alone and each drug plus dichlorphenamide as a potential inhibitor. An additional culture of DDS was incubated with SMZ, a potential inhibitor. […] In addition, SMZ inhibited acetylation of DDS.

NAT-1 [3] = biological target: T2, NAT-1 (Homo sapiens, UniProt P18440); assay: Acetylation in human liver subcellular preparation (cytosol), NAT-1 substrates, HPLC of N-acetylated metabolites
T2 sequence (P18440 1-290): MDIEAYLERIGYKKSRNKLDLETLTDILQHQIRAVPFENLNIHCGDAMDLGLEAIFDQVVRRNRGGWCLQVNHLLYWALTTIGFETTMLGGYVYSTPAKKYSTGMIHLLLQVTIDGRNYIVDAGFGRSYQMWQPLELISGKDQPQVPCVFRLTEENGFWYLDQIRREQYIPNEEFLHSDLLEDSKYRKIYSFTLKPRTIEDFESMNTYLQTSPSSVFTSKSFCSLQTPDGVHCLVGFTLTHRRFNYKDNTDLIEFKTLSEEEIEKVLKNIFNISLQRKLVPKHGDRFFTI
Description: Human liver was homogenized and prepared by high-speed differential centrifugation. A preliminary centrifugation was performed at 13,000 g for 20 min.
The formation of N-acetylated metabolites was quantified by HPLC. Samples from the incubates were injected onto a reverse-phase column (e.g., Waters Symmetry C18, 5 micron, 4.6×150 mm). […] Drugs and their N-acetylated metabolites were quantitated by UV absorption using a diode-array detector.
The substrates assayed above were then co-incubated with human liver subcellular preparations.

NAT-1 [4] = biological target: T2, NAT-1; settings: 4 hours
Description: Human hepatocytes were incubated at 37° C. at a ratio of 1 million cells per ml in modified Williams E buffer. Either cryopreserved hepatocytes in suspension or freshly-isolated hepatocytes attached to microtiter plates were used. The reaction was initiated by addition of substrate, and terminated after 4 hours by the addition of perchloric acid. As before, parallel incubations were conducted for drug alone versus drug plus potential inhibitors. Percent inhibition was calculated from the ratio of [Acetylated metabolite]/[parent] with and without the potential inhibitor.

NAT-1 [5] = biological target: T2, NAT-1; settings: human volunteer
Description: On the fourth and fifth days, PAS was also administered at its standard dose of 4 g every 8 hours.

[6] = human liver cytosol, 30 min, 37° C.

Structure (SMILES): Nc1ccc(C(=O)O)cc1 [PABA, para-amino-benzoic acid]
inhibition of acetylation to Ac-PAS (NAT-1 [3]; 200 μM inhibitor co-incubated with 20 μM PAS, human liver cytosol, 15 min, 37° C.): no Ac-PAS was detected

Structure (SMILES): Nc1ccc(C(=O)O)c(O)c1 [PAS, para-amino-salicylate]
inhibition of acetylation to Ac-PABA (NAT-1 [3]; 200 μM inhibitor co-incubated with 20 μM PABA, human liver cytosol, 15 min, 37° C.): blockage of all measurable acetylation
inhibition of acetylation to Ac-SMX (NAT-1 [3]; 200 μM inhibitor co-incubated with 200 μM SMX, human liver cytosol, 15 min, 37° C.): 50%
formation of acetylated metabolite, substrate incubated alone (NAT-1 [3]; human liver subcellular preparation, HPLC, FIG. 1): a single metabolic peak
reduction of Ac-SMX formation (NAT-1 [4]; 200 μM PAS co-incubated with 200 μM SMX, human hepatocytes): 60%
formation of acetylated metabolite, substrate incubated alone (NAT-1 [4]; 200 μM incubated separately with human hepatocytes): formation of Ac-PAS and Ac-SMX
PAS concentrations in plasma on Day 5 (NAT-1 [5]; PAS 4 g every 8 hours, HPLC, FIG. 5): exceed the levels required to inhibit NAT-1
plasma concentration of Ac-SMX, Day 5 (with PAS) vs Day 3 (baseline) (NAT-1 [5]; SMX 500 mg every 12 hours for 5 days, PAS 4 g every 8 hours on days 4 and 5, FIG. 2): almost completely abolished

Structure (SMILES): Cc1cc(C)nc(NS(=O)(=O)c2ccc(N)cc2)n1 [SMZ, sulphamethazine]
inhibition of acetylation of DDS (NAT-2 [2]; substrate DDS): inhibited
formation of acetylated metabolite, substrate incubated alone (NAT-2 [1]): Acetylated metabolites were found
inhibition of acetylation of substrate DDS (NAT-2 [1]; [6]): ++

The next lines start with the values.

formation of acetylated metabolite, substrate incubated alone (NAT-2 [1]): Acetylated metabolites were found
inhibition of acetylation of substrate DDS (NAT-2 [1]; [6]): ++
Structure (SMILES): NNC(=O)c1ccncc1 [INH, isoniazid]

inhibition of acetylation of all substrates (INH, DDS, SMZ) (NAT-2 [2]; substrates INH, DDS and SMZ): strongly inhibited
inhibition of acetylation of substrate DDS (NAT-2 [1]; [6]): ++
inhibition of acetylation of substrate INH (NAT-2 [1]; substrate INH, human liver cytosol, 30 min, 37° C.): −−
inhibition of acetylation of substrate SMZ (NAT-2 [1]; [6]): ++
Structure (SMILES): NS(=O)(=O)c1cc(Cl)c(Cl)c(S(N)(=O)=O)c1 [dichlorphenamide]

inhibition of acetylation of substrate SMZ (NAT-2 [1]; [6]): ++
Structure (SMILES): CCC1(c2ccc(N)cc2)CCC(=O)NC1=O (stereo not shown) [AG, aminoglutethimide]

formation of acetylated metabolite, substrate incubated alone (NAT-2 [1]): Acetylated metabolites were found
Structure (SMILES): Nc1ccc(S(=O)(=O)c2ccc(N)cc2)cc1 [DDS, dapsone]
